These compounds were tested against T1, HIV integrase (Human immunodeficiency virus type 1 group M subtype B, UniProt P12497, F1332H) (assay: Determination of enzyme (HIV integrase) inhibitory activity). Settings: recombinant integrase protein (F185H), strand transfer plate assay, absorbance at 450 nm.
T1 construct: HIV integrase full length gene; made in house; host or cells: Escherichia coli BL21(DE3)
Format: biochemical, HIV (Human Immunodeficiency Virus (type 1))
Source text: The following explains evaluation methods of the HIV integrase inhibitory activity of the compound of the present invention.
(i) Construction of Recombinant Integrase Gene Expression System
HIV integrase full length gene (J. Virol., 67, 425-437 (1993)) in which phenylalanine at codon 185 was substituted by histidine, was inserted between the restriction enzyme NdeI and XhoI sites of plasmid pET21a(+) (Novagen), whereby an integrase expression vector pET21a-IN-F185H was constructed.
(ii) Production and Purification of Integrase Protein
Escherichia coli recombinant BL21(DE3) transformed with plasmid pET21a-IN-F185H obtained in (i) was shake cultured at 30° C. in a liquid medium containing ampicillin. When the culture reached the logarithmic growth phase, isopropyl-β-D-thiogalactopyranoside was added to promote expression of integrase gene. The culture was continued for 3 hr to promote accumulation of the integrase protein. The recombinant E. coli was collected in pellets by centrifugal separation and preserved at −80° C.
The E. coli was suspended in Lysis buffer ([…] HEPES (pH 7.5), 5 mM DTT, 10 mM CHAPS, 10% glycerol) containing 1M sodium chloride and subjected to repeat pressurization and depressurization for rupture, and centrifugal separation at 4° C., 40,000×g, 60 min to recover a water-soluble fraction (supernatant). This was diluted 10-fold with Lysis buffer free of sodium chloride, mixed with SP-Sepharose (GE healthcare Bioscience) and stirred at 4° C. for 60 min to allow adsorption of integrase protein to the resin. The resin was washed with Lysis buffer containing 100 mM sodium chloride and the integrase protein was eluted with Lysis buffer containing 1M sodium chloride.
The eluted integrase protein solution was subjected to a Superdex 75 (GE healthcare Bioscience) column for gel filtration. The protein was eluted with Lysis buffer containing 1M sodium chloride.
The obtained fractions of the integrase protein were collected and preserved at −80° C.
(iii) Preparation of DNA Solution
The following DNA synthesized by Greiner or FASMAC was dissolved in TE buffer (10 mM Tris-hydrochloric acid (pH 8.0), 1 mM EDTA) and mixed with donor DNA, target DNA, and each complementary strand (+ and − strands) to 1 μM. The mixture was heated at 95° C. for 5 min, 80° C. for 10 min, 70° C. for 10 min, 60° C. for 10 min, 50° C. for 10 min and 40° C. for 10 min and kept at 25° C. to give a double stranded DNA, which was used for the test.
(iv) Determination of Enzyme (HIV Integrase) Inhibitory Activity
The donor DNA was diluted with TE buffer to 10 nM (or 5 nM), of which 50 μl was added to each well of streptavidin-coated microtiter plate (Roche) and allowed to adsorb at 37° C. for 60 min. The plate was washed with phosphate buffer (Dulbecco's PBS, Sanko Junyaku Co., Ltd.) containing 0.1% Tween 20 and phosphate buffer. Then, an enzyme reaction mixture (70 μl), a test substance (10 μl) diluted with the enzyme reaction mixture and 100 μg/ml (or 64 μg/ml (2 μM)) integrase protein (10 μl) were added to each well and reacted at 37° C. for 60 min.
Composition of the enzyme reaction mixture: 30 mM MOPS (3-morpholinopropanesulfonic acid), 5 mM magnesium chloride, 3 mM DTT (dithiothreitol), 0.1 mg/ml BSA (bovine serum albumin), 5% glycerol, 10% DMSO (dimethyl sulfoxide), 0.01% Tween 20.
Then, 50 nM (or 25 nM) target DNA (10 μl) was added, reacted at 37° C. for 10 min and washed with phosphate buffer containing 0.1% Tween 20 to stop the reaction.
Then, 100 mU/ml peroxidase labeled anti-digoxigenin antibody solution (Roche, 100 μl) was added, and the mixture was reacted at 37° C. for 60 min, followed by washing with phosphate buffer containing 0.1% Tween 20.
A peroxidase color solution (Bio Rad, 100 μl) was added and allowed to react at room temperature for 4 min (or 3 min). The color reaction was stopped by adding IN sulfuric acid (100 μl). The absorbance at 450 nm was measured. […]
With `COc1cc2c(cc1Cc1cc(N3CCOCC3)cc(Cl)c1F)c(=O)c(C(=O)O)cn2[C@H](CO)C(C)(C)OC` [Example 42, 6-[3-chloro-2-fluoro-5-(morpholin-4-yl)benzyl]-1-((R)-1-hydroxymethyl-2-methoxy-2-methylpropyl)-7-methoxy-4-oxo-1,4-dihydroquinoline-3-carboxylic acid] the IC50 was < 10 nM.
For `COc1cc2c(cc1Cc1cc(N3CCOCC3)c(F)c(Cl)c1F)c(=O)c(C(=O)O)cn2[C@H](CO)C(C)C` [Example 16, 6-[3-chloro-2,4-difluoro-5-(morpholin-4-yl)benzyl]-1-((S)-1-hydroxymethyl-2-methylpropyl)-7-methoxy-4-oxo-1,4-dihydroquinoline-3-carboxylic acid], the IC50 was < 10 nM.
In the case of `COc1cc2c(cc1Cc1cc(N3CCCC3=O)cc(Cl)c1F)c(=O)c(C(=O)O)cn2[C@H](CO)[C@@H](C)OC` [Example 48, 6-[3-chloro-2-fluoro-5-(2-oxopyrrolidin-1-yl)benzyl]-1-((1R,2R)-1-hydroxymethyl-2-methoxypropyl)-7-methoxy-4-oxo-1,4-dihydroquinoline-3-carboxylic acid], the IC50 is reported as < 10 nM.
For `COc1cc2c(cc1Cc1cc(-c3ccccn3)cc(Cl)c1F)c(=O)c(C(=O)O)cn2[C@H](CO)C(C)C` [Example 36, 6-[3-chloro-2-fluoro-5-(pyridin-2-yl)benzyl]-1-((S)-1-hydroxymethyl-2-methylpropyl)-7-methoxy-4-oxo-1,4-dihydroquinoline-3-carboxylic acid], the IC50 was < 10 nM.
In the case of `CCc1cc2c(cc1Cc1cc(N3CCOCC3)cc(Cl)c1F)c(=O)c(C(=O)O)cn2[C@H](CO)C(C)C` [Example 23, 6-[3-chloro-2-fluoro-5-(morpholin-4-yl)benzyl]-7-ethyl-1-((S)-1-hydroxymethyl-2-methylpropyl)-4-oxo-1,4-dihydroquinoline-3-carboxylic acid], the IC50 is reported as < 10 nM.
With `COc1cc2c(cc1Cc1cc(-c3noc(C)n3)cc(Cl)c1F)c(=O)c(C(=O)O)cn2[C@H](CO)C(C)C` [Example 57, 6-[3-chloro-2-fluoro-5-(5-methyl-1,2,4-oxadiazol-3-yl)benzyl]-1-((S)-1-hydroxymethyl-2-methylpropyl)-7-methoxy-4-oxo-1,4-dihydroquinoline-3-carboxylic acid] the IC50 was < 10 nM.
`CCc1cc2c(cc1Cc1cc(N3CCOCC3)cc(Cl)c1F)c(=O)c(C(=O)O)cn2[C@H](CO)C(C)(C)C` [Example 18, 6-[3-chloro-2-fluoro-5-(morpholin-4-yl)benzyl]-7-ethyl-1-((S)-1-hydroxymethyl-2,2-dimethylpropyl)-4-oxo-1,4-dihydroquinoline-3-carboxylic acid] was tested, and the IC50 was < 10 nM.
For `COc1cc2c(cc1Cc1cc(N3CCC(F)(F)C3)cc(Cl)c1F)c(=O)c(C(=O)O)cn2[C@H](CO)C(C)C` [Example 12, 6-[3-chloro-5-(3,3-difluoropyrrolidin-1-yl)-2-fluorobenzyl]-1-((S)-1-hydroxymethyl-2-methylpropyl)-7-methoxy-4-oxo-1,4-dihydroquinoline-3-carboxylic acid], the IC50 was < 10 nM.
For `COc1cc2c(cc1Cc1cc(N3CC[C@@H](O)C3)cc(Cl)c1F)c(=O)c(C(=O)O)cn2[C@H](CO)C(C)C` [Example 8, 6-[3-chloro-2-fluoro-5-((R)-3-hydroxypyrrolidin-1-yl)benzyl]-1-((S)-1-hydroxymethyl-2-methylpropyl)-7-methoxy-4-oxo-1,4-dihydroquinoline-3-carboxylic acid], the IC50 was < 10 nM.
For `COc1cc2c(cc1Cc1cc(N3CCCS3(=O)=O)cc(Cl)c1F)c(=O)c(C(=O)O)cn2[C@H](CO)C(C)C` [Example 21, 6-[3-chloro-5-(1,1-dioxoisothiazolidin-2-yl)-2-fluorobenzyl]-1-((S)-1-hydroxymethyl-2-methylpropyl)-7-methoxy-4-oxo-1,4-dihydroquinoline-3-carboxylic acid], the IC50 was < 10 nM.
In the case of `COc1cc2c(cc1Cc1cc(N3CCC(O)CC3)cc(Cl)c1F)c(=O)c(C(=O)O)cn2[C@H](CO)C(C)C` [Example 32, 6-[3-chloro-2-fluoro-5-(4-hydroxypiperidin-1-yl)benzyl]-1-((S)-1-hydroxymethyl-2-methylpropyl)-7-methoxy-4-oxo-1,4-dihydroquinoline-3-carboxylic acid], the IC50 is reported as < 10 nM.
In the case of `COc1cc2c(cc1Cc1cc(N3CCCCC3=O)cc(Cl)c1F)c(=O)c(C(=O)O)cn2[C@H](CO)C(C)C` [Example 7, 6-[3-chloro-2-fluoro-5-(2-oxopiperidin-1-yl)benzyl]-1-((S)-1-hydroxymethyl-2-methylpropyl)-7-methoxy-4-oxo-1,4-dihydroquinoline-3-carboxylic acid], the IC50 is reported as < 10 nM.
`COCC[C@@H](CO)n1cc(C(=O)O)c(=O)c2cc(Cc3cc(N4CCOCC4)cc(Cl)c3F)c(OC)cc21` [Example 29, 6-[3-chloro-2-fluoro-5-(morpholin-4-yl)benzyl]-1-((S)-1-hydroxymethyl-3-methoxypropyl)-7-methoxy-4-oxo-1,4-dihydroquinoline-3-carboxylic acid] was tested, and the IC50 was < 10 nM.
With `CCO[C@H](C)[C@@H](CO)n1cc(C(=O)O)c(=O)c2cc(Cc3cc(N4CCOCC4)cc(Cl)c3F)c(OC)cc21` [Example 50, 6-[3-chloro-2-fluoro-5-(morpholin-4-yl)benzyl]-1-[(1R,2R)-2-ethoxy-1-(hydroxymethyl)propyl]-7-methoxy-4-oxo-1,4-dihydroquinoline-3-carboxylic acid] the IC50 was 10 to 100 nM.
In the case of `COc1cc2c(cc1Cc1cc(N3CCOCC3)cc(Cl)c1F)c(=O)c(C(=O)O)cn2[C@H](CO)C(C)(C)C` [Example 17, 6-[3-chloro-2-fluoro-5-(morpholin-4-yl)benzyl]-1-((S)-1-hydroxymethyl-2,2-dimethylpropyl)-7-methoxy-4-oxo-1,4-dihydroquinoline-3-carboxylic acid], the IC50 is reported as < 10 nM.
With `COc1cc2c(cc1Cc1cc(N3CC[C@H](F)C3)cc(Cl)c1F)c(=O)c(C(=O)O)cn2[C@H](CO)C(C)C` [Example 14, 6-[3-chloro-2-fluoro-5-((S)-3-fluoropyrrolidin-1-yl)benzyl]-1-((S)-1-hydroxymethyl-2-methylpropyl)-7-methoxy-4-oxo-1,4-dihydroquinoline-3-carboxylic acid] the IC50 was < 10 nM.

Reference: patent US7872004B2, “6-(heterocyclyl-substituted benzyl)-4-oxoquinoline compound and use thereof as HIV integrase inhibitor” (Japan Tobacco Inc., priority 2006, dated 2011)
